# “Also recorded” adds a separate entry of the source. Read-outs that look alike come from different tables or passages of the source.
# B1: BMP4: protein belonging to the BMP family, BMP signal promoter (protein, UniProt P12644 293-408, looked up)
# Bone morphogenetic protein 4: SPKHHSQRARKKNKNCRRHSLYVDFSDVGWNDWIVAPPGYQAFYCHGDCPFPLADHLNSTNHAIVQTLVNSVNSSIPKACCVPTELSAISMLYLDEYDKVVLKNYQEMVVEGCGCR
# B2: Wnt3a: protein belonging to the Wnt family, Wnt signal promoter (protein, UniProt P56704 19-352, looked up)
# Protein Wnt-3a: SYPIWWSLAVGPQYSSLGSQPILCASIPGLVPKQLRFCRNYVEIMPSVAEGIKIGIQECQHQFRGRRWNCTTVHDSLAIFGPVLDKATRESAFVHAIASAGVAFAVTRSCAEGTAAICGCSSRHQGSPGKGWKWGGCSEDIEFGGMVSREFADARENRPDARSAMNRHNNEAGRQAIASHMHLKCKCHGLSGSCEVKTCWWSQPDFRAIGDFLKDKYDSASEMVVEKHRESRGWVETLRPRYTYFKVPTERDLVYYEASPNFCEPNPETGSFGTRDRTCNVSSHGIDGCDLLCCGRGHNARAERRREKCRCVFHWCCYVSCQECTRVYDVHTCK
# Key:
# Rx-GFP ES cells [1] = test: Differentiation into hypothalamic progenitor cells by SFEBq/gfCDM, percentage of Rx-GFP+ cells by FACS on day 7; format: cell-based, mouse; conditions: for Rx-GFP positivity rate recovered in the presence of insulin: LY294002 5 μM, Akt inhibitor VIII 2 μM
# Protocol: Differentiation culture was performed under the same culturing conditions as Example 13 for 7 days. For analyzing the differentiated cells, an antibody against the Rx protein, which is a hypothalamic and retinal progenitor cell marker, was used. In hypothalamic progenitor cells, in addition to Rx, a protein called nestin is expressed, whereas in retinal progenitor cells, only Rx is expressed but nestin is not expressed, so that hypothalamic progenitor cells were identified by a fluorescent immunostaining method with the co-expression of Rx and nestin as an index.
# Furthermore, EB5 cells wherein GFP was knocked in at the Rx gene locus (hereinafter, Rx-GFP ES cells) were prepared, and the expression of Rx-GFP was also analyzed by FACS.
# (§1) Differentiation culture was performed under the same culturing conditions as Example 14 for 7 days, and the influence of the addition of insulin to the medium on the differentiation of hypothalamic progenitor cells from ES cells was analyzed by FACS using Rx-GFP ES cells. The intracellular signal transduction of insulin is involved by roughly two pathways (MAPK pathway and PI3K-Akt pathway). […] LY294002, Akt inhibitor VIII, PD98059 or DMSO (vehicle control) was added on day 2 of cultivation.
# Bf1/Venus-mES cells [2] = test: Layer-specific neuron differentiation of FACS-sorted, re-aggregated SFEBq cerebral progenitors after Notch inhibition (fluorescent immunostaining); format: cell-based, mouse; conditions: further 6 days culture
# Protocol: After Bf1/Venus-mES cells were cultured for differentiation for different lengths of periods (9 days or 12 days), the resulting Venus-positive cells were separated by FACS, and rapid re-aggregation (5000 cells/well) was performed using a non-cell-adhesive 96-well culture plate. Starting on the following day, rapid induction of differentiation into neurons was performed by a treatment with the Notch inhibitor DAPT (10 μM; known to promote neuron differentiation; Nelson et al, 2007); after further differentiation culture for 6 days, layer-specific markers were analyzed by a fluorescent immunostaining method (FIG. 6, view A).
# [3] = tested on: aggregate masses derived from a mouse ES cell; test: Ca++ imaging (fluo4-AM) of cerebral neurons produced by the SFEBq method; format: cell-based
# Protocol: To confirm the activities and network formation of cerebral neurons produced by the SFEBq method, an analysis was performed by a Ca^++ imaging method using fluo4-AM. The method of examination was as described in the literature (Ikegaya et al, 2005, Neurosci. Res., 52, 132-138).
# Aggregate masses derived from a mouse ES cell cultured by the method described in Example 1 for 18 days were further cultured on the Transwell culture insert (Corning) using a DMEM/F12 medium supplemented with N2 for 7 days (FIG. 3A, view A). Ca^++ imaging was performed at room temperature using an artificial cerebrospinal fluid.
# Human ES cells (KhES #1) = test: Hypothalamus gene marker expression in human ES cells by modified SFEBq/gfCDM (quantitative PCR, day 31); format: cell-based; conditions: insulin 7 μg/ml, 31 days
# [4] = tested on: Mouse ES cells (EB5 and Sox1-GFP ES cells); test: Nerve differentiation of mouse ES cells by the SFEBq/gfCDM method; format: cell-based; conditions: 15 μg/ml in differentiation medium
# Protocol: To induce the differentiation of nerves by suspension culture, ES cells were mono-dispersed using 0.25% trypsin-EDTA (Invitrogen), suspended in 150 μl of a differentiation medium to obtain a cell density of 3000 cells per well on a non-cell-adhesive 96-well culture plate (Lipidure-Coat, NOF Corp.), and incubated at 37° C., 5% CO2 for 5 days.
# The differentiation medium used was Iscove's Modified Dulbecco's Medium (IMDM)/Hams F12 1:1 (Invitrogen) supplemented with 1× Chemically-defined lipid concentrate (Invitrogen), monothioglycerol (450 μM; Sigma) and bovine serum albumin (a recrystallization-purified product of >99% purity; Sigma).
# Differentiation into nerve progenitor cells was analyzed as described previously (Watanabe et al., Nature Neuroscience, 2005) by FACS using Sox1-GFP ES cells that emit fluorescence when differentiated into nerves. The FACS was performed using FACSAria (Beckton Dickenson) and its data were analyzed using FACSDiva software. Nerve differentiation was also analyzed by a fluorescent immunostaining method using EB5 cells.
# Rx-GFP ES cells [5] = test: Dorsal/ventral hypothalamic marker expression in Rx-GFP-positive re-aggregate masses (fluorescent immunostaining, day 13); format: cell-based, mouse
# Protocol: The cells of each fraction were dispensed to a non-cell-adhesive 96-well culture plate at 2500-5000 cells per well, and further cultured using a DMEM/F12 medium supplemented with 7 g/L glucose, 10% KSR and penicillin/streptomycin for 3 days. […] Three days later, half the medium was replaced with a DFNB medium (a DMEM/F12 supplemented with 7 g/l of glucose, 1×N2 supplement and 1×B27 supplement) supplemented with 10 ng/ml of CNTF, and the cells were further cultured for 3 days.
# After cultivation for a total of 13 days, the re-aggregate masses were prepared as frozen sections, and the properties of the differentiated cells were analyzed by a fluorescent immunostaining method. For evaluating the effect of Shh, 30 nM Shh was added from 4 days after the start of cultivation.
# SFEBq culture product = test: qPCR of marker genes in the SFEBq culture product with insulin; format: cell-based, mouse; conditions: insulin treatment
# Protocol: The expression of a marker gene is analyzed by, for example, performing quantitative PCR using the 7500 Fast Real-Time PCR System (Applied Biosystems) in accordance with the manufacturer's instructions, and normalizing the obtained data by the expression of GAPDH. The method of quantitative PCR is obvious to those skilled in the art. Alternatively, cells may be manipulated to allow the desired marker gene to be expressed as a fusion protein of a marker gene product and GFP or the like (knocking-in). It is also possible to detect the expression of the protein using an antibody specific for a marker gene product.
# as §1
# Bf1/Venus-mES cells [6] = test: Cerebral site-specific differentiation of re-aggregated SFEBq cerebral progenitors with secreted pattern formation factors (fluorescent immunostaining); format: cell-based, mouse; conditions: BMP4 0.5 ng/ml
# Protocol: Bf1/Venus-mES cells were cultured for differentiation by the SFEBq method for 7 days, after which the resulting Venus-positive cells were separated by FACS, and rapid re-aggregation (5000 cells/well) was performed using a non-cell-adhesive 96-well culture plate. Secreted pattern formation factors such as Fgf 8b (50 ng/ml), the Fgf receptor inhibitor FGFR3-Fc (50 ng/ml), Wnt3a (20 ng/ml), and BMP4 (0.5 ng/ml) were added thereto, and the cells were cultured for 3 to 12 days. The expression of cerebral part-specific markers was analyzed by a fluorescent immunostain method (FIG. 7A, view A).
# [7] = 10 μM treatment after 12 days of differentiation culture
# [8] = room temperature, artificial cerebrospinal fluid
# [9] = 7 μg/ml insulin, added on day 2
molecule,measurement,setting,value
COc1cccc(-c2cc(=O)c3ccccc3o2)c1N [PD98059],antagonism of the inhibitory effect of insulin on differentiation into hypothalamic progenitor cells,"Rx-GFP ES cells [1]; 7 μg/ml insulin, PD98059 0.5-10 μM, added on day 2",did not antagonize; also recorded: not noted
C[C@H](NC(=O)Cc1cc(F)cc(F)c1)C(=O)N[C@H](C(=O)OC(C)(C)C)c1ccccc1 [DAFT],cells differentiated into Reelin-positive Cajal-Retzius cells,Bf1/Venus-mES cells [2]; 10 μM treatment after 9 days of differentiation culture,more than 50%
same,Reelin-positive cells,Bf1/Venus-mES cells [2]; [7],less than 10%
same,cells differentiated into Ctip2/Emx1-positive cerebral cortical neurons specific for the 5th layer,Bf1/Venus-mES cells [2]; [7],more than 60%
N#Cc1cc2[nH]c(=O)c(=O)[nH]c2cc1[N+](=O)[O-] [CNQX],repeated synchronized Ca++ elevations over a long distance (Ca++ oscillation),[3]; [8],inhibited
"O=c1[nH]c2ccccc2n1C1CCN(Cc2ccc(-c3nc4cc5[nH]cnc5cc4nc3-c3ccccc3)cc2)CC1 [Akt inhibitor VIII, 1,3-Dihydro-1-(1-((4-(6-phenyl-1H-imidazo[4,5-g]quinoxalin-7-yl)phenyl)methyl)-4-piperidinyl)-2H-benzimidazol-2-one]",Rx-GFP positivity rate recovered in the presence of insulin,Rx-GFP ES cells [1]; [9],~28%
same,"Rx expression without addition of Akt inhibitor VIII, relative to culture with 2 μM from day 9",Human ES cells (KhES #1),50%
same,"Vax1 expression without addition of Akt inhibitor VIII, relative to culture with 2 μM from day 9",Human ES cells (KhES #1),25%
"Cl.O=c1cc(N2CCOCC2)oc2c(-c3ccccc3)cccc12 [LY294002, 2-(4-morpholinyl)-8-phenyl-1(4H)-benzopyran-4-one hydrochloride]",Rx-GFP positivity rate recovered in the presence of insulin,Rx-GFP ES cells [1]; [9],about 20%
"human apo-transferrin: human apo-transferrin (Sigma), medium additive",influence of addition or non-addition on the differentiation results,[4],did not influence
"CC1=C2C[C@H]3[C@@H](CC=C4C[C@@H](O)CC[C@@]43C)[C@@H]2CC[C@]12O[C@@H]1C[C@H](C)CN[C@H]1[C@H]2C [Cyclopamine, 11-Deoxojervine]",expression of dorsal/ventral hypothalamus markers compared with the Shh treatment,Rx-GFP ES cells [5],reverse result
insulin: insulin added to serum-free medium,expression of a caudal marker,SFEBq culture product,induced moderately
same,expression of the most rostral CNS marker,SFEBq culture product,suppressive effect
same,Rx-GFP positivity rate,Rx-GFP ES cells [1]; 7 μg/ml insulin,less than 5%
same,"expression of Rx-GFP, time-window analysis",Rx-GFP ES cells [1]; insulin 7 μg/ml added to gfCDM on day 5 or before,suppressed
same,"effect on Rx-GFP+%, time-window analysis",Rx-GFP ES cells [1]; insulin 7 μg/ml present after day 4,decreased substantially
same,"effect on Rx-GFP+%, time-window analysis",Rx-GFP ES cells [1]; insulin 7 μg/ml present during the first 3 days,almost no inhibitory effect
NC1=N[C@H](O)[C@H]2[C@H]3O[C@]4(O)O[C@@H]([C@@H](O)[C@@]2(N1)[C@@H]4O)[C@]3(O)CO [tetrodotoxin],Ca++ elevations synchronized or not synchronized with surrounding cells,[3],inhibited
same,repeated synchronized Ca++ elevations over a long distance (Ca++ oscillation),[3],inhibited
NC(=O)CC[C@H](N)C(=O)O [glutamine],Ca++ elevations synchronized or not synchronized with surrounding cells,[3]; [8],enhanced
"c1ccc2c(Oc3nc(Nc4ccc(N5CCOCC5)cc4)c4ncn(C5CCCCC5)c4n3)cccc2c1 [Purmorphamine, 2-(1-Naphthoxy)-6-(4-morpholinoanilino)-9-cyclohexylpurine]",expression of dorsal/ventral hypothalamus markers compared with the Shh treatment,"Rx-GFP ES cells [5]; Cyclopamine treatment, Purmorphamine 0.5 μM in place of Shh",same effects as with Shh
O=[Se](O)O [sodium selenite],percentage of Rx-GFP,"Rx-GFP ES cells [1]; concentration in differentiation medium increased from 0.017 mg/L to 0.025 mg/L, control 50-70%",about 80%
B1,differentiation of choroidal tissue (TTR-positive),Bf1/Venus-mES cells [6],noted
B2,cells expressing Otx2 and Lmx1a (hem area markers),Bf1/Venus-mES cells [6]; Wnt3a 20 ng/ml,2-30%

# From patent publication US10934523B2, “Method for culture of stem cell” (RIKEN, priority 2008, dated 2021)
